The test system of one assay is DEN/CCl4-induced HCC. Description: DEN/CCl4-induced liver fibrosis associated HCC model. The format is in vivo, C3H mice. The protocol: (§1) In vivo hepatocellular carcinoma treatment studies […]
mouse PD-1 (200 µg/mouse; BioXcell, BE0146). The therapeutic efficacy and the changes in immune cells were analyzed after two weeks of treatment. The tumor volume was calculated with the following formula: volume = width × length × height/2. The lung metastatic nodules

The subject of another assay is orthotopic JHH-7 tumors. Description: Orthotopic JHH-7 HCC model. It counts as in vivo, nude mice. To be noted: combination with sorafenib (40 mg/kg/d, oral); BPRCX807 15 mg/kg/d SC minipump. The procedure:
as §1
mouse PD-1 (200 µg/mouse; BioXcell, BE0146). The therapeutic efficacy and the changes in immune cells were analyzed after two weeks of treatment. The tumor volume was calculated with the following formula: volume = width × length × height/2. […]

Assay [1] relates to other chemokine receptors (10 CCRs, 7 CXCRs, and 1 CX3CR subtypes). Description: PathHunter β-arrestin assay, chemokine receptor selectivity. To be noted: 10 µM. It counts as cell-based. The text has this:
(§2) Table: List of genes examined by real-time PCR and the primer sequences used.
(§3) Genes Forward primers Reverse primers […]
(§4) Vim 5’-[…]-3’ 5’-[…]-3’ […]
(§5) Zeb2 5’-[…]-3’ 5’-[…]-3’
(§6) Twist1 5’-[…]-3’ 5’-[…]-3’
(§7) Cdh1 5’-[…]-3’ 5’-[…]-3’
(§8) Mta3 5’-[…]-3’ 5’-[…]-3’ […]
(§9) Off-target standard assays
(§10) Methods employed in this study have been adapted from the scientific literature to […]
(§11) maximize reliability and reproducibility. Reference standards were run as an integral part of […]
(§12) each assay to ensure the validity of the results obtained. Radioligand binding Assays were […]
(§13) performed under conditions described in the accompanying "Methods" section of this report […]
(§14) by Eurofins Panlabs, Inc (Taipei, Taiwan, ROC).
(§15) BPRCX807 were tested in the hERG (hERG-CHO, automated patch-clamp) assay and determined at Eurofins Panlabs (Missouri, USA). The experiment was accepted in accordance with Eurofins validation Standard Operating Procedure.
(§16) Selectivity Screening of various chemokine receptors
(§17) The results were performed by Eurofins DiscoverX (Fremont, California, USA). The […]
(§18) PathHunter® β -Arrestin assay was performed in a homogenous, non-imaging assay format […]
(§19) using a technology developed by DiscoverX called Enzyme Fragment Complementation […]
(§20) called Enzyme Acceptor (EA). PK and EA are then expressed as fusion proteins in the cell, […]
(§21) restoring β-Gal activity which is measured using chemiluminescent PathHunter® Detection […]

In the next assay the target is CXCR4 (Homo sapiens, UniProt P61073). The assay is described as above. It counts as cell-based.
Description: as §2, §3, §4, §5, §6, §7, §8, §9, §10, §11, §12, §13, §14, §15, §16, §17, §18, §19, §20, §21

A value given as a limit tells only on which side of the number the result lay.

Sequence of CXCR4 (P61073 whole entry): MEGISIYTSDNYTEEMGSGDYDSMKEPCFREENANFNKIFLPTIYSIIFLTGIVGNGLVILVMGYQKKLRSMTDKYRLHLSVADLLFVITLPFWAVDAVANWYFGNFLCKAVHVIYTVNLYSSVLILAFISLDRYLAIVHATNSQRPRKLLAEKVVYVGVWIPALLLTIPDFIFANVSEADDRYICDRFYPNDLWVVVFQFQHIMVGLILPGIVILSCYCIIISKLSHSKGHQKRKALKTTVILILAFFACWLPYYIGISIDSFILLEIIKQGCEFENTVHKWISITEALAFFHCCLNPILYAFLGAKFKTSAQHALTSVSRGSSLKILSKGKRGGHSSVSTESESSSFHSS

With `Cc1cc(NC2CCN(C(=O)CCNCC(=O)O)CC2)nc(NCc2nc(CCCNCCCNC3CCCCC3)co2)n1` [BPRCX807], the “Tumors in fibrotic liver” value with DEN/CCl4-induced HCC (combination with anti–PD-1, BPRCX807 15 mg/kg/d SC minipump weeks 25 to 28) is “remarkably suppressed”. Further, the Tumor size entry with DEN/CCl4-induced HCC (combination with sorafenib) is given as “significantly reduce tumor size more efficiently than sorafenib alone”. Further, in the assay on orthotopic JHH-7 tumors, the Tumor volume reduction is given as roughly 77%. In addition, the “Inhibition of other chemokine receptors (β-arrestin assay)” value in assay [1] is on record as less than 10%. Moreover, 10 µM produced 100% inhibition on CXCR4.

What is called inhibition is the percentage by which the read-out fell short of the control.
